Test results as given in patent US7098307B2, “Neo-tryptophan” (Mayo Foundation for Medical Education and Research, priority 1998, dated 2006).
Where two headings read alike, the source gives them in different places. Values belong to the compound of their own block, whether it stands above or below them. Numbered stars: 1 amine (or outer) side, 2 acyl side, 3 side chain; on linkers, the order of the positions; unused ones are H or OH. Square brackets hold non-standard residues; d marks the D form. Ends that are not written are not given here. Peptide text beside a SMILES is read from it. Ala(indol-4-yl) = N[C@@H](Cc1cccc2[nH]ccc12)C(=O)O; X1 = O=C([C@@H](Cc1cccc2[nH]ccc12)N[*:1])[*:2]; NMeR = CN[C@@H](CCCNC(=N)N)C(=O)O; Tle = CC(C)(C)[C@H](N)C(=O)O; dOrn = NCCC[C@@H](N)C(=O)O; Dab = NCC[C@H](N)C(=O)O

Assays:
[1] = Catalepsy bar test in rats; format: in vivo, rat
Description: The following experiments were performed to assess the ability of NT69L to cause and influence catalepsy. Male Sprague-Dawley rats (150–250 g) or CD-1 mice (24–26 g) were housed in a temperature-controlled room in groups of five with free access to food and water. The animals were kept on a 12 hour light/dark cycle, and all tests were performed during the light cycle. […] Thirty minutes after injection, the animals were tested for catalepsy. For rats, the test involved simply placing the animal's fore paws on a suspended metal bar 10 mm in diameter, 11 cm above the counter. The time elapsed until the animal's fore paws touch the counter was recorded. […] The cut-off time was 20 seconds, and each animal was tested three times for each time point.

human NTR1 = biological target: T1, human NTR1 (Homo sapiens, UniProt P30989); assay: Competition binding with [3H]NT, membranes of CHO-K1 cells transfected with human NTR1
T1 construct: expressed in transfected cells; host or cells: CHO-K1
Description: (§1) CHO-K1 cells were stably transfected with nucleic acid encoding either the human NTR1 or the rat NTR1, and cultured in 150 mm petri plates with 35 mL of Dulbecco-modified Eagle's medium containing 100 μM minimal essential medium nonessential amino acids (GIBCO) supplemented with 5% (v/v) FetalClone II bovine serum product (Hyclone Labs, Logan, Utah). CHO cells (subculture 9–19) were harvested at confluency. Briefly, the medium from each plate was removed by aspiration, and the cells washed with 6 mL of 50 mM Tris-HCl (pH 7.4) and resuspended in 5–10 mL of Tris-HCl by scraping the cells with a rubber spatula. The resuspended cells were placed into a centrifuge tube and collected by centrifugation at 300× g for five minutes at 4° C. in a GPR centrifuge (Beckman Instruments, Fullerton, Calif.). The cellular pellet (in 50 mM Tris-HCl, 1 mM EDTA, pH 7.4) was stored at […] until radioligand binding was performed.
(§2) The supernatant was decanted and discarded, and the cellular pellet was resuspended in 2 mL of Tris-HCl, 1 mM EDTA (pH 7.4) followed by homogenization with a Brinkmann Polytron at setting 6 for ten seconds. Centrifugation was repeated as above and the supernatant was decanted and discarded. The resulting final cellular pellet was resuspended in 50 mM Tris-HCl, lmM EDTA, 0.1% bovine serum albumin, and 0.2 mM bacitracin.
(§3) Incubation was at 20° C. for 30 minutes. Each reaction was terminated by addition of cold 0.9% NaCl (5×1.5 mL) followed by rapid filtration through a GF/B filter strip that had been pretreated with 0.2% polyethylenimine.

5HT2A receptor = 5HT2A receptor (Homo sapiens, UniProt P28223); assay: Competitive binding with [3H]ketanserin, human brain tissue; conditions: for competition with labeled ketanserin for binding at the 5HT2A receptor: human brain tissue
[2] = Degradation in human plasma (HPLC peak area); format: in vitro ADME; conditions: for half-life at 0.5 mg/mL: human
Description: (§4) For the degradation studies, data were plotted in linear form as a semi-log plot with SigmaPlot for Windows Version 4.00. Linear regression on these plots provided the parameters used to calculate the half-time (t1/2) for degradation of each polypeptide. The correlation coefficient (R) for the linear regression was taken as a measure of the goodness-of-fit.

[3] = Body temperature (hypothermia) in rats; conditions: for peak body temperature reduction: 18 nmol injected into the PAG, at 30 minutes; for induction of hypothermia: intraperitoneal administration (NT64L 1 mg/kg); for Peak BT change / time of Peak BT change: rats
[4] = Hot plate test (antinociception, % MPE) in rats; conditions: for peak % MPE value: 18 nmol injected into the PAG, at 30 minutes; for induction of antinociception (hot plate): intraperitoneal administration (NT64L 1 mg/kg); for Peak % MPE / time of Peak % MPE: rats
rat NTR1 = biological target: T2, rat NTR1 (Rattus norvegicus, UniProt P20789); assay: Competition binding with [3H]NT, membranes of CHO-K1 cells transfected with rat NTR1
T2 construct: expressed in transfected cells; host or cells: CHO-K1
Description: as §1, §2, §3

[5] = Degradation in rat plasma (HPLC peak area); format: in vitro ADME
Description: as §4

[6] = Degradation in rat intestinal preparation; format: in vitro ADME; conditions: pH 7.4, 37° C., read-out: half-time, Rat Intestinal Preparation (converted)
Description: For intestinal preparations, rats were sacrificed by decapitation, and the small intestines removed. The tissue was washed with ice-cold PBS (10 mM, pH 7.4). About […] of intestinal tissue was added to about 10 mL of PBS and homogenized using a Brinkman polytron homogenizer (setting 6). After homogenization, 10 mL of PBS was added to 10 mL of the intestinal homogenate. […] The supernatant was removed and stored at −20° C. until testing. Immediately before incubation with the polypeptide, the intestinal preparation was filtered through a 0.2 μm filter. Testing procedures were similar to those for the plasma tests.
as §4

[7] = CHO cells, read-out: Kd hNTR (Table VII)
[8] = 25% plasma, 37° C., 0.5 mg/mL polypeptide, read-out: half-time, Plasma Human (converted)
[9] = 0.5 mg/kg intraperitoneal (footnote)

Compound: CN1CCN(C2=Nc3cc(Cl)ccc3Nc3ccccc32)CC1 [Clozapine, reference compound]
catalepsy ([1]; 20 mg/kg ip): did not cause catalepsy
Kd (human NTR1; [7]): > 100 µM

Compound: O=C(CCCN1CCC(O)(c2ccc(Cl)cc2)CC1)c1ccc(F)cc1 [Haloperidol, reference compound]
catalepsy ([1]; 1 mg/kg ip): profound catalepsy
ED50 at 30 min ([1]; male, Sprague-Dawley, rat, in vivo, ip, at 30 minutes, read-out: ED50 haloperidol-induced catalepsy): 0.13 mg/kg
ED50 at 60 min ([1]; male, Sprague-Dawley, rat, in vivo, ip, at 60 minutes, read-out: ED50 haloperidol-induced catalepsy): 0.26 mg/kg
ED50 at 180 min ([1]; male, Sprague-Dawley, rat, in vivo, ip, at 180 minutes, read-out: ED50 haloperidol-induced catalepsy): 0.31 mg/kg

Compound: N[C@@H](Cc1cccc2[nH]ccc12)C(=O)O [L-neo-Trp, (2S)-2-amino-3-(1H-4-indolyl)propanoic acid]
Kd (5HT2A receptor): > 100 µM
competition with labeled ketanserin for binding at the 5HT2A receptor (5HT2A receptor): did not compete
binding to human NT receptors from CHO cells (human NTR1): does not bind
Kd (human NTR1; [7]): > 100 µM

Compound: CC[C@H](C)[C@H](NC(=O)[C@H](Cc1cccc2[nH]ccc12)NC(=O)[C@@H]1CCCN1C(=O)[C@H](CCCNC(=N)N)NC(=O)[C@@H](N)CCCNC(=N)N)C(=O)N[C@@H](CC(C)C)C(=O)O [NT64L]
Kd (5HT2A receptor): 6.6 µM
competition with labeled ketanserin for binding at the 5HT2A receptor (5HT2A receptor): found to compete
peak body temperature reduction [3]: 2.1 °C
induction of hypothermia [3]: did not induce
peak % MPE value [4]: 76%
induction of antinociception (hot plate) [4]: did not induce
half-life at 0.5 mg/mL [2, 8]: 1.4 h

Compound: CC(C)C[C@H](NC(=O)[C@@H](NC(=O)[C@H](Cc1cccc2[nH]ccc12)NC(=O)[C@@H]1CCCN1C(=O)[C@H](CCCNC(=N)N)NC(=O)[C@@H](N)CCCNC(=N)N)C(C)(C)C)C(=O)O [NT65L] (H-RRP[Ala(indol-4-yl)][Tle]L-OH; N-terminus and C-terminus assumed)
half-life at 0.5 mg/mL ([2]; plasma): 1.1 h
reduction in binding affinity compared to NT64L (human NTR1; NT receptor binding): 3 fold

Compound: CC(C)C[C@H](NC(=O)[C@@H](NC(=O)[C@@H](Cc1cccc2[nH]ccc12)NC(=O)[C@@H]1CCCN1C(=O)[C@H](CCCNC(=N)N)NC(=O)[C@H](N)CCCCN)C(C)(C)C)C(=O)O [NT66D] (H-[dK]RP[X1][Tle]L-OH; N-terminus and C-terminus assumed)
Peak BT change [3, 9]: −1.0 @ ° C.
time of Peak BT change [3, 9]: 30 min
induction of hypothermia [3]: did induce
Peak % MPE [4, 9]: 58% @
time of Peak % MPE [4, 9]: 30 min
induction of antinociception (hot plate) [4]: did induce
Kd (rat NTR1): 0.077 ± 0.009 µM
Kd (human NTR1): 0.21 ± 0.02 µM

Compound: CN[C@@H](CCCNC(=N)N)C(=O)N[C@@H](CCN)C(=O)N1CCC[C@H]1C(=O)N[C@@H](Cc1cccc2[nH]ccc12)C(=O)N[C@H](C(=O)N[C@@H](CC(C)C)C(=O)O)C(C)(C)C [NT71] (H-[NMeR][Dab]P[Ala(indol-4-yl)][Tle]L-OH; N-terminus and C-terminus assumed)
Peak BT change ([3]; 1 mg/kg intraperitoneal): −2.0 @ ° C.
time of Peak BT change ([3]; 1 mg/kg intraperitoneal): 40 min
Peak BT change ([3]; 5 mg/kg intraperitoneal): −2.4 @ ° C.
time of Peak BT change ([3]; 5 mg/kg intraperitoneal): 90 min
induction of hypothermia [3]: did induce
Peak % MPE ([4]; 1 mg/kg intraperitoneal): 70% @
time of Peak % MPE ([4]; 1 mg/kg intraperitoneal): 60 min
Peak % MPE ([4]; 5 mg/kg intraperitoneal): 79% @
time of Peak % MPE ([4]; 5 mg/kg intraperitoneal): 180 min
induction of antinociception (hot plate) [4]: did induce
half-life at 0.5 mg/mL ([5]; 25% plasma, 37° C., 0.5 mg/mL polypeptide, read-out: half-time, Plasma Rat (converted)): 260 h
half-life [6]: 5.1 h

Compound: CC(C)C[C@H](NC(=O)[C@@H](NC(=O)[C@H](Cc1cccc2[nH]ccc12)NC(=O)[C@@H]1CCCN1C(=O)[C@H](N)CCCCN)C(C)(C)C)C(=O)O [NT72] (H-[dK]P[Ala(indol-4-yl)][Tle]L-OH; N-terminus and C-terminus assumed)
Peak BT change ([3]; 5 mg/kg intraperitoneal): −2.8 @ ° C.
time of Peak BT change ([3]; 5 mg/kg intraperitoneal): 180 min
induction of hypothermia [3]: did induce
Peak % MPE ([4]; 5 mg/kg intraperitoneal): 100% @
time of Peak % MPE ([4]; 5 mg/kg intraperitoneal): 120 min
induction of antinociception (hot plate) [4]: did induce
half-life at 0.5 mg/mL [2, 8]: 3000 h
Kd (rat NTR1): 0.27 ± 0.03 µM
half-life [6]: 54 h
Kd (human NTR1): 0.64 µM

Compound: CC[C@H](C)[C@H](NC(=O)[C@H](Cc1cccc2[nH]ccc12)NC(=O)[C@@H]1CCCN1C(=O)[C@H](N)CCCCN)C(=O)N[C@@H](CC(C)C)C(=O)O [NT73] (H-[dK]P[Ala(indol-4-yl)]IL-OH; N-terminus and C-terminus assumed)
Peak BT change ([3]; 5 mg/kg intraperitoneal): −0.9 @ ° C.
time of Peak BT change ([3]; 5 mg/kg intraperitoneal): 90 min
induction of hypothermia [3]: did induce
Peak % MPE ([4]; 5 mg/kg intraperitoneal): 40% @
time of Peak % MPE ([4]; 5 mg/kg intraperitoneal): 120 min
induction of antinociception (hot plate) [4]: did induce
half-life at 0.5 mg/mL [2, 8]: 300 h
Kd (rat NTR1): 0.032 ± 0.006 µM
half-life [6]: 0.83 h
Kd (human NTR1): 0.045 ± 0.003 µM

Compound: NCCc1c[nH]c2ccc(O)cc12 [Serotonin, reference compound]
Kd (rat NTR1; CHO cells, read-out: Kd rNTR (Table VII)): > 100 µM
Kd (human NTR1; [7]): > 100 µM

Compound: NT24″27″: L-Arg-D-Orn-L-Pro-L-Tyr-L-Ile-L-Leu (R[dOrn]PYIL) [reference compound]
peak body temperature reduction [3]: 1.1 °C
induction of hypothermia [3]: did not induce
peak % MPE value [4]: 20%
induction of antinociception (hot plate) [4]: did not induce

Second part, the compound after the results:

competition with labeled ketanserin for binding at the 5HT2A receptor (5HT2A receptor): found to compete
half-time, Plasma Human [2]: about 0.85 hours
half-life at 0.5 mg/mL ([2]; plasma): 0.85 h
Compound: CC[C@H](C)[C@H](NC(=O)[C@H](Cc1ccc(O)cc1)NC(=O)[C@@H]1CCCN1C(=O)[C@H](CCCNC(=N)N)NC(=O)[C@H](N)CCCCN)C(=O)N[C@@H](CC(C)C)C(=O)O [NT2, reference compound] (H-[dK]RPYIL-OH; N-terminus and C-terminus assumed)

half-life at 0.5 mg/mL ([5]; plasma): 110 h
Compound: CC(C)C[C@H](NC(=O)[C@@H](NC(=O)[C@H](Cc1cccc2[nH]ccc12)NC(=O)[C@@H]1CCCN1C(=O)[C@@H](N)CCN)C(C)(C)C)C(=O)O [NT74] (H-[Dab]P[Ala(indol-4-yl)][Tle]L-OH; N-terminus and C-terminus assumed)

half-life at 0.5 mg/mL ([5]; plasma): 1.6 h
half-life [6]: 0.27 h
Compound: CC[C@H](C)[C@H](NC(=O)[C@H](Cc1cccc2[nH]ccc12)NC(=O)[C@@H]1CCCN1C(=O)[C@@H](N)CCN)C(=O)N[C@@H](CC(C)C)C(=O)O [NT75] (H-[Dab]P[Ala(indol-4-yl)]IL-OH; N-terminus and C-terminus assumed)
